From PMC9276671, “A first-in-human Phase I dose-escalation trial of the novel therapeutic peptide, ALM201, demonstrates a favourable safety profile in unselected patients with ovarian cancer and other advanced solid tumours” (British Journal of Cancer, 2022)
Read-outs that look alike come from different tables or passages of the source. No end group written: not given here.

How the values were obtained:
[1] = Urinary excretion of unchanged ALM201 (LC-MS/MS); type: in vivo; conditions: human, sc, patients with positive urine concentrations, urine collected over 6 h after dosing, day 1 cycle 1, read-out: Amount excreted in the urine, % of the administered dose, mean (±SD)
[2] = Safety and tolerability: adverse events and DLT (CTCAE v4.03); type: in vivo
Experimental: Eligible participants were enrolled in sequential cohorts treated with a subcutaneous (SC) injection of ALM201, with close monitoring for safety and dose-limiting toxicities (DLTs). Dose levels were not weight-adjusted, and the starting dose for the study was 10 mg ALM201 given on days 1–5, 8–12 and 15–19 every 21 days, i.e., weekday dosing to be given continuously. […] Every new dose cohort was evaluated for the occurrence of a DLT during treatment cycle 1.
This study commenced with an accelerated dose-escalation design, then switched to a conventional algorithm (3 + 3 patients per dose level) to identify the maximum tolerated dose (MTD), escalating on observation of 0/3 or 1/6 DLTs, and de-escalating if two or more patients with DLTs were encountered.
Safety assessments included physical examination, vital signs, biochemistry and haematology laboratory screens, plus immunogenicity testing. Safety evaluations were conducted weekly during each treatment cycle, with DLT assessed during cycle one only. All events and suspected DLTs were graded according to the Common Toxicity Criteria for Adverse Events (CTCAE), version 4.03.

advanced solid tumours = test: Tumour response by RECIST 1.1; type: in vivo, human
Experimental: Tumour assessment by imaging (CT scan or MRI scan as appropriate for tumour type) was assessed in all patients at initial screening and after every two cycles of treatment (i.e., every 6 weeks) during cycles 1–8 (i.e., first 24 weeks), and then after every four cycles of treatment (i.e., every 12 weeks) from cycle nine onwards. Scans were reported according to RECIST version 1.1.

[3] = tested on: ovarian patient-derived xenograft models; conditions: cited from earlier work
[4] = tested on: HMEC-1, a human vascular endothelial cell-line; conditions: protocol Table 3; ref Investigator brochure (IB); read-out: Wound scrape IC50; cited from earlier work
Text: page 37: Almac Discovery Confidential There are five main histological subtypes of ovarian cancer differing in tissue of origin, stage of presentation, sensitivity to chemotherapy, survival and driver genetic mutations. The most aggressive of these subtypes are the high grade serous tumours. […] ALM201 also had no effect on cytok ...

tubulin = tested on: tubulin; parameters: method as in Investigator brochure (IB); conditions: ref Investigator brochure (IB), read-out: Tubulin polymerisation IC50, cited from earlier work
[5] = tested on: DU145 and HT29 xenografts; conditions: 3.0 mg/kg/day and 0.3 mg/kg/day, 14-day period, BALB-c SCID mouse, ref Investigator brochure (IB); cited from earlier work
Experimental: In vivo studies using a BALB-c SCID mouse xenograft model with DU145 and HT29 cell-lines, where the small tumours can be directly examined in situ using confocal and standard microscopy have shown that administration of ALM201 inhibits a range of markers of new blood vessel formation. Tumours were typically 1-2 mm at baseline and assessments taken over a 14-day period. Dose levels of 3.0 mg/kg/d ...

[6] = Mouse, 3mg/kg SC, male animals; ref Investigator brochure (IB); cited from earlier work
[7] = Rat, 5mg/kg SC, male animals; ref Investigator brochure (IB); cited from earlier work
[8] = ref Investigator brochure (IB), cited from earlier work
Experimental: page 40: Almac Discovery Confidential (i) a […] dose ranging study in rats, dose range 5-50 mg/kg/day; (ii) a non-GLP dose ranging study in dogs, dose range 15-50 mg/kg/day; (iii) a GLP 28-day study in rats, dose range 5-50 mg/kg/day; (iv) a GLP 28-day study in dogs, dose range 5-50 mg/kg/day; (v) a non-GLP wound healing study in rats, dose range 5-50 mg/kg/day. In the rat dose range finding study, administration of doses of up to 50 mg/kg/day for 14 days were assessed. ALM201 was well tolerated at all doses and the No Observable Adverse Effect Level (NOAEL) was considered to be 50 mg/kg/d ...

[9] = tested on: angiogenesis and cell migration and invasion; conditions: cited from earlier work
Text: Early investigations into the mechanism of action for ALM201 reported that the peptide is internalised into CD44-expressing cells and targets microtubules inhibiting migration and invasion in cancer and endothelial cells, similar to vascular disrupting agents. However, it was unclear if this was the principal mechanism of inhibiting angiogenesis or if other factors, such as inhibiting endothelial cell migration and inva ...

heparinised human blood = conditions: alone or with Staphylococcus Enterotoxin B, 10^-8 to 10^-6 M, ref Investigator brochure (IB); cited from earlier work

Sequence: IRQQPRDPPTETLELEVSPDPAS [ALM201]
- dose excreted [1]: 0.074%
- Maximum tolerated dose (MTD) ([2]; SC weekday doses of up to 300 mg): not reached
- CTCAE grade 4-related toxicities ([2]; all dose levels): no CTCAE grade 4-related toxicities
- Thrombotic events, number of patients ([2]; cohort 8 (100 mg) and cohort 1 (10 mg)): two
- Dose-limiting toxicities (DLTs) ([2]; cycle 1, 10-300 mg SC): No DLTs
- Abdominal wall bruising, causality ([2]; in vivo): Definite
- Anorexia, causality ([2]; in vivo): Possible
- Arthralgia, causality ([2]; in vivo): Possible
- Blurred vision, causality ([2]; in vivo): Probable
- Depression, causality ([2]; in vivo): Possible
- Diarrhoea, causality ([2]; in vivo): Possible
- Fatigue, causality ([2]; in vivo): Possible
- Headache, causality ([2]; in vivo): Possible
- Hot flushes, causality ([2]; in vivo): Possible
- Injection-site erythema, causality ([2]; in vivo): Definite
- Injection-site immune reaction, causality ([2]; in vivo): Definite
- Injection-site pain, causality ([2]; in vivo): Definite
- Nausea, causality ([2]; in vivo): Possible
- Oral candidiasis, causality ([2]; in vivo): Possible
- Pedal oedema, causality ([2]; in vivo): Possible
- Pruritus, causality ([2]; in vivo): Definite
- Pulmonary embolus, causality ([2]; in vivo): Possible
- Pyrexia, causality ([2]; in vivo): Possible
- Urinary tract infection, causality ([2]; in vivo): Possible
- Venous thrombus, causality ([2]; in vivo): Possible
- Vomiting, causality ([2]; in vivo): Possible
- Stable disease / disease control rate (advanced solid tumours; 7/20 patients, stable disease for up to four cycles): 35%
- Disease progression (advanced solid tumours; 12 of 20 patients): 60%
- Partial or complete responses (advanced solid tumours; all patients): No partial or complete responses
- Patients with SD until the end of cycle 4 (advanced solid tumours; in vivo): Three
- Tumour growth inhibition [3]: > 60%
- IC50 [4]: 0.009 nM
- IC50 (tubulin; protocol Table 2): 0.1 nM
- IC50 (tubulin; protocol Table 3): 0.11 nM
- Average vessel diameter, average segment length and vessel branch number [5]: significant decreases
- AUC24 (figure is for AUC0-∞) [6]: 2.166 µg·h/mL
- Cmax [6]: 3.477 µg/mL
- Half-life [6]: 12 min
- Tmax [6]: 10 min
- AUC24 [7]: 4.32 µg·h/mL
- Cmax [7]: 3.4 µg/mL
- Half-life [7]: 36 min
- Tmax [7]: 30 min
- NOAEL ([8]; beagle dog dose range finding, 15 and 50 mg/kg/day for 14 days): 50 mg/kg/day
- NOAEL ([8]; dog GLP 28 days plus recovery, 5, 15 and 50 mg/kg/day): 50 mg/kg/day
- NOAEL ([8]; rat GLP 28 days plus recovery, 5, 15 and 50 mg/kg/day): 50 mg/kg/day
- NOAEL ([8]; rat dose range finding study, up to 50 mg/kg/day for 14 days): 50 mg/kg/day
- Effect on wound closure or tensile strength ([8]; rat, 5 and 50 mg/kg/day for up to 18 days, versus vehicle controls): No effect
- Activity in standard in vitro and ex vivo assays of angiogenesis, cell migration and invasion [9]: low picomolar activity
- Effect on cytokine release and T-cell proliferation (heparinised human blood): no effect
